Data taken from patent publication US7074789B2, “Kinase inhibitors” (Amgen Inc., priority 1999, dated 2006).

Tests used:
Type in all cases: biochemical
[1] = target: T1, EGFR (Homo sapiens, UniProt P00533); experiment: Kinase inhibition assay (33P transfer), EGFR; conditions: Table 2, kinase inhibition class; read-out: EGFR-1
T1 construct: Kinases are expressed as either kinase domains or full length constructs; made in house
Procedure, shortened: (§1)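 Steps: coat wells with poly(Glu,Tyr) 4:1 or poly(Arg,Ser) 3:1; add purified kinase, [33P]ATP and inhibitor; incubate; wash with 0.5% phosphoric acid; add liquid scintillant; count. IC50 corresponds to half-maximal reduction of bound 33P.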

[2] = target: T2, PDGFRB (Homo sapiens, UniProt P09619); experiment: Kinase inhibition assay (33P transfer), PDGFRB; conditions: read-out: PDGFRB-1
T2 construct: Kinases are expressed as either kinase domains or full length constructs; made in house

[3] = target: T3, FGFR1 (Homo sapiens, UniProt P11362); experiment: Kinase inhibition assay (33P transfer), FGFR1; conditions: read-out: FGFR1-1
T3 construct: Kinases are expressed as either kinase domains or full length constructs; made in house
T3 sequence (P11362 22-822, species assumed): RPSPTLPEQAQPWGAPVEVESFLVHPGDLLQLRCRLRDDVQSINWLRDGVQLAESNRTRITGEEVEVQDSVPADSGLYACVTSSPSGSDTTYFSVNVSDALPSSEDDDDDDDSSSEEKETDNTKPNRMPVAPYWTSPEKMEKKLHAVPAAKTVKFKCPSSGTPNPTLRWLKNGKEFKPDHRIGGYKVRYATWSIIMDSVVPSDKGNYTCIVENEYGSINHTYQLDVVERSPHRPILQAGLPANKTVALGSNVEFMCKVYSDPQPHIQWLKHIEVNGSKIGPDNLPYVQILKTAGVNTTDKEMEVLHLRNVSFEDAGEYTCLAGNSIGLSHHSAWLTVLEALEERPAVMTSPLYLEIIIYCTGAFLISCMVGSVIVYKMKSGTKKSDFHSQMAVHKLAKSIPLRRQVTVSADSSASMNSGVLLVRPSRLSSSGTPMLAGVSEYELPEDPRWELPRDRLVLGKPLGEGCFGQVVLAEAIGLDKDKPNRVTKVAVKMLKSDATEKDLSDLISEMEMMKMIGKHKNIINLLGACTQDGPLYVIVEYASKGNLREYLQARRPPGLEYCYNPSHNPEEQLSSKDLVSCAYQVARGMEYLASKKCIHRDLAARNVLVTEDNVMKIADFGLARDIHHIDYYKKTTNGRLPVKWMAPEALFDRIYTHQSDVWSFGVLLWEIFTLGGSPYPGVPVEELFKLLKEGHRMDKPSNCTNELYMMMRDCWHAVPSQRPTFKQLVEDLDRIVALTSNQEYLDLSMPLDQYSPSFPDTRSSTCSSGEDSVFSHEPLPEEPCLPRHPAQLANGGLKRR

[4] = target: T4, Zap-70 (Homo sapiens, UniProt P43403); experiment: Kinase inhibition assay (33P transfer), Zap-70; conditions: Table 3; read-out: Zap-1
T4 construct: Kinases are expressed as either kinase domains or full length constructs; made in house
T4 sequence (P43403 1-619): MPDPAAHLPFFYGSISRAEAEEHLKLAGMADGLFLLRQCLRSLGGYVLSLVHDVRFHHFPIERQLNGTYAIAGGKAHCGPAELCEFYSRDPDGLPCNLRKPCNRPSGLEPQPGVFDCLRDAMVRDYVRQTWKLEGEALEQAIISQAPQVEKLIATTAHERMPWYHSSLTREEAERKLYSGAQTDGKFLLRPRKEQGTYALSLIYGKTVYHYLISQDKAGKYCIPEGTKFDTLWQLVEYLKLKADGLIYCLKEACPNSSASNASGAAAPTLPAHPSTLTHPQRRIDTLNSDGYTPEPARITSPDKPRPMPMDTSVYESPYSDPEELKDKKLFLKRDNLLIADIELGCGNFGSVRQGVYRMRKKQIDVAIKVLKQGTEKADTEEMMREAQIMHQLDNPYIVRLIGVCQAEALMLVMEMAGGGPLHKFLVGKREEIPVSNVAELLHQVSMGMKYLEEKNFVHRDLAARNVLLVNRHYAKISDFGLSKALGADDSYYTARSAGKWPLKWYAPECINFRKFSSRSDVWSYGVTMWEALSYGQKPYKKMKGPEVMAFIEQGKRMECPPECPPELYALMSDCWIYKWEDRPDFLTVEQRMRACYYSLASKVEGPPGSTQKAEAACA
Procedure, shortened: (§2)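 Steps: express kinase as GST or polyHistidine fusion in E. coli or High Five cells; optionally co-express or mix with regulatory polypeptides; incubate with 33P-ATP and plate-attached poly(Glu,Tyr) 4:1 or poly(Arg,Ser) 3:1; wash with 0.5% phosphoric acid; count by liquid scintillation.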

[5] = target: T5, Lck (Homo sapiens, UniProt P06239); experiment: Kinase inhibition assay (33P transfer), Lck; conditions: Table 3; read-out: Lck-1
T5 construct: Kinases are expressed as either kinase domains or full length constructs; made in house
T5 sequence (P06239 whole entry, species assumed, the tested form may be a part): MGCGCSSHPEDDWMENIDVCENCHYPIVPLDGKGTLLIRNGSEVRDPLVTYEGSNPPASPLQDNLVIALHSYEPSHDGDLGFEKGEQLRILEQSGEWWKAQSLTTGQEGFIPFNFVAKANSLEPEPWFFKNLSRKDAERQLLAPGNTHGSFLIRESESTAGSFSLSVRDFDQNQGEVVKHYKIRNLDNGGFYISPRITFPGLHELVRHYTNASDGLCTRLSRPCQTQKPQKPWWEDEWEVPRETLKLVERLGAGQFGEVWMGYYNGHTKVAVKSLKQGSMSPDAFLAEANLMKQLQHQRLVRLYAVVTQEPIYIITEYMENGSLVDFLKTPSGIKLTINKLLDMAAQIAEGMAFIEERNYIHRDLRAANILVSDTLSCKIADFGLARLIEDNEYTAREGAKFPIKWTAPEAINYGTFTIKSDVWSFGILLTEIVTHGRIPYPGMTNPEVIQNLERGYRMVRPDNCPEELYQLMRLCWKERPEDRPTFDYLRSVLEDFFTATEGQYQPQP
Procedure, shortened: as §2

[6] = target: T6, c-Met (Homo sapiens, UniProt P08581); experiment: Kinase inhibition assay (33P transfer), c-Met; conditions: Table 2, kinase inhibition class; read-out: Met-1
T6 construct: Kinases are expressed as either kinase domains or full length constructs; made in house
Procedure, shortened: as §1

[7] = target: T7, Itk (Homo sapiens, UniProt Q08881); experiment: Kinase inhibition assay (33P transfer), Itk; conditions: Table 3; read-out: Itk-1
T7 construct: Kinases are expressed as either kinase domains or full length constructs; made in house
T7 sequence (Q08881 1-620): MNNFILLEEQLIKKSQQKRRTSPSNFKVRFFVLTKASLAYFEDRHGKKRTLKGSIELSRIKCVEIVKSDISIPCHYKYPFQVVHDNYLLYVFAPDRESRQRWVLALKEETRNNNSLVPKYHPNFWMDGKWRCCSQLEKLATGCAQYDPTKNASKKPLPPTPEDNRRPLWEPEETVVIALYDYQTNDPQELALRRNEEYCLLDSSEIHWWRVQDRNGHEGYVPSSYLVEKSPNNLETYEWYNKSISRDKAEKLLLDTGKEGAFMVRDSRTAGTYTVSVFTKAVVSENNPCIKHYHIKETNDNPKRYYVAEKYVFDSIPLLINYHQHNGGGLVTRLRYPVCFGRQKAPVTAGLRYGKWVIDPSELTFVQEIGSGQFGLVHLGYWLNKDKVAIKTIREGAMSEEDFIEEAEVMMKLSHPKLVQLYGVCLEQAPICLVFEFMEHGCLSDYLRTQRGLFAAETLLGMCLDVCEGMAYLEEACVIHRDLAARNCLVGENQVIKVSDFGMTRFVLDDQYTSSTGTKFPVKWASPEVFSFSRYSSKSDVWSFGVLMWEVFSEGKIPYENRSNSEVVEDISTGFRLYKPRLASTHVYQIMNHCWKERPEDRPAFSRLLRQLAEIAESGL
Procedure, shortened: as §1

[8] = target: T8, Tek (Homo sapiens, UniProt Q02763); experiment: Kinase inhibition assay (33P transfer), Tek; conditions: read-out: Tek-1
T8 construct: Kinases are expressed as either kinase domains or full length constructs; made in house
Procedure, shortened: as §1

[9] = target: T9, Lyn (Homo sapiens, UniProt P07948); experiment: Kinase inhibition assay (33P transfer), Lyn; conditions: Table 6, Lyn-1 kinase inhibition class
T9 construct: Kinases are expressed as either kinase domains or full length constructs; made in house
Text: (§3) The inhibitor compounds described herein are screened in the following manner. Kinases suitable for use in the following protocol to determine kinase activity of the compounds described herein include, -but are not limited to: Lck, Lyn, Src, Fyn, Syk, Zap-70, Itk, Tec, Btk, EGFR, ErbB2, Kdr, Flt-1, Flt-3, Tek, c-Met, InsR, and AKT.
(§4) Kinases are expressed as either kinase domains or full length constructs fused to glutathione S-transferase (GST) or polyHistidine tagged fusion proteins in either E. colior Baculovirus-High Five expression systems. They are purified to near homogeneity by affinity chromatography essentially as previously described (Lehr et al., 1996; Gish et al., 1995). In some instances, kinases are co-expressed or mixed with purified or partially purified regulatory polypeptides prior to measurement of activity.
(§5) Kinase activity and inhibition are measured essentially by established protocols (Braunwalder et al., 1996). Briefly, The transfer of ^33PO4 from ATP to the synthetic substrates poly(Glu, Tyr) 4:1 or poly(Arg, Ser) 3:1 attached to the bioactive surface of microtiter plates serves as the basis to evaluate enzyme activity. After an incubation period, the amount of phosphate transferred is measured by first washing the plate with 0.5% phosphoric acid, adding liquid scintillant, and then counting in a liquid scintillation detector. The IC50 is determined by the concentration of compound that causes a 50% reduction in the amount of […] incorporated onto the substrate bound to the plate.

[10] = target: T10, Kdr (Homo sapiens, UniProt P35968); experiment: Kinase inhibition assay (33P transfer), Kdr; conditions: Table 3; read-out: KDR-1
T10 construct: Kinases are expressed as either kinase domains or full length constructs; made in house
T10 sequence (P35968 20-1356, species assumed): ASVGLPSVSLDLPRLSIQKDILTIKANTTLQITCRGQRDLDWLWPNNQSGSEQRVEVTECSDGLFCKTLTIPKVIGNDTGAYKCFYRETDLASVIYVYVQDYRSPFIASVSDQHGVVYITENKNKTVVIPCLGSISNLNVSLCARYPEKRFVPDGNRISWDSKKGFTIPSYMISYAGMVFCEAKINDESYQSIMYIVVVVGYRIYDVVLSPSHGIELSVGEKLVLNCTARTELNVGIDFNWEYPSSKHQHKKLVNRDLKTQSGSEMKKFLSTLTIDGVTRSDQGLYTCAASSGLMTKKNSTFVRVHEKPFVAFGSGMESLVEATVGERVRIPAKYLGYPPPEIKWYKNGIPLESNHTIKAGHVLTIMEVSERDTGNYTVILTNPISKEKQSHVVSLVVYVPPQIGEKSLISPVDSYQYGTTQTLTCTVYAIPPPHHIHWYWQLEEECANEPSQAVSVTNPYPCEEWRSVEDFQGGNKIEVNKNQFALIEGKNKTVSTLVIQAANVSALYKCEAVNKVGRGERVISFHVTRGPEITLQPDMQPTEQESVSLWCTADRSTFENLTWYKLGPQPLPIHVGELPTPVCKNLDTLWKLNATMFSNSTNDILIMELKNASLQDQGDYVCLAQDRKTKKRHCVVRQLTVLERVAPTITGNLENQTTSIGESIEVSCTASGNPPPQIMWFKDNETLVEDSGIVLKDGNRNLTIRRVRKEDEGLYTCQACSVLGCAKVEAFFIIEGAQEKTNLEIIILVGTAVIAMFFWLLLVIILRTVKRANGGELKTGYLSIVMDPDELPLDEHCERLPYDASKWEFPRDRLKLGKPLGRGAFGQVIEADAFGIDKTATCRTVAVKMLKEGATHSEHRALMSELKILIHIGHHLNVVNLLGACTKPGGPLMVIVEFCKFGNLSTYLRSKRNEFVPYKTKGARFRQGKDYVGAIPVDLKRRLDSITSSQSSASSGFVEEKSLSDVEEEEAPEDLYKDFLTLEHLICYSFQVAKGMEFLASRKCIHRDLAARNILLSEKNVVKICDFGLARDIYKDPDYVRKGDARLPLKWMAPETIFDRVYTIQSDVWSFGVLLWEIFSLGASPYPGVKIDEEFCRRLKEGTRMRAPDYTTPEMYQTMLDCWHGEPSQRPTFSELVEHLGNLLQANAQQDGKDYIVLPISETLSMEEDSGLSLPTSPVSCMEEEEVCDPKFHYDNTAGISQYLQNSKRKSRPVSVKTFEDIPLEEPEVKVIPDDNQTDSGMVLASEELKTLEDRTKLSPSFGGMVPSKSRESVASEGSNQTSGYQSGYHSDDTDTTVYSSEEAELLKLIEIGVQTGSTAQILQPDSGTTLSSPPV
Procedure, shortened: as §2

[11] = target: T11, Hck-1 (Homo sapiens, UniProt P08631); experiment: Kinase inhibition assay (33P transfer), Hck; conditions: Table 6, Hck-1 kinase inhibition class
T11 construct: Kinases are expressed as either kinase domains or full length constructs; made in house
T11 sequence (P08631 whole entry, the tested form may be a part): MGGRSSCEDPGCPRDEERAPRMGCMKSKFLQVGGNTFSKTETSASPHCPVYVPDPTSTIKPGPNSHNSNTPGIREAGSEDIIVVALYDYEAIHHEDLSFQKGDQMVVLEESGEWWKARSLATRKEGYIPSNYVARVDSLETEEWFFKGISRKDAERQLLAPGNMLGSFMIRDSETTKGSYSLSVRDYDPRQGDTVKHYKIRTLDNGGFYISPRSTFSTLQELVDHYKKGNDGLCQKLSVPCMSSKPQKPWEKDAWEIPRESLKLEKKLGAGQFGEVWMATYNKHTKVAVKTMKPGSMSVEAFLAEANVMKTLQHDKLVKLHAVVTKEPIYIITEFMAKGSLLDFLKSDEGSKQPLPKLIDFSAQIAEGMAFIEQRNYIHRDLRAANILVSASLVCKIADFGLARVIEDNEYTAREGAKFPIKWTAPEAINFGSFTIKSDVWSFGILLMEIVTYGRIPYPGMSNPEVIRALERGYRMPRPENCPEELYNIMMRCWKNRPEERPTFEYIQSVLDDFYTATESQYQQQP

[12] = target: T12, ErbB4 (Homo sapiens, UniProt Q15303); experiment: Kinase inhibition assay (33P transfer), ErbB4; conditions: read-out: ErbB4-1
T12 construct: Kinases are expressed as either kinase domains or full length constructs; made in house

[13] = target: T13, AKT (Homo sapiens, UniProt Q9Y243); experiment: Kinase inhibition assay (33P transfer), AKT; conditions: Table 2, kinase inhibition class; read-out: AKT3-1
T13 construct: Kinases are expressed as either kinase domains or full length constructs; made in house
T13 sequence (Q9Y243 whole entry, the tested form may be a part): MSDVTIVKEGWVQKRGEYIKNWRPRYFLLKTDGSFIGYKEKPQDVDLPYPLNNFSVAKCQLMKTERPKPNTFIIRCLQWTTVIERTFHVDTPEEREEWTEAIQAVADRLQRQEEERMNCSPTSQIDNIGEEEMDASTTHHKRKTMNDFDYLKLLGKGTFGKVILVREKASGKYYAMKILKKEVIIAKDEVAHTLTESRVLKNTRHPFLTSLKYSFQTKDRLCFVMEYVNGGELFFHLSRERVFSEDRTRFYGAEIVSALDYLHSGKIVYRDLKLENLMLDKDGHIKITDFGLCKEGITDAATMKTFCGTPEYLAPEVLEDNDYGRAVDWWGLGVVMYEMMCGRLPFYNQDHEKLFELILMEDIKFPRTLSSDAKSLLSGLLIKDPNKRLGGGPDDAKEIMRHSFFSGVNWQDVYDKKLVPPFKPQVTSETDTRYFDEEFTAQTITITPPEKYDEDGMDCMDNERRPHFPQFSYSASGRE
Procedure, shortened: as §2

[14] = target: T14, Fyn (Homo sapiens, UniProt P06241); experiment: Kinase inhibition assay (33P transfer), Fyn; conditions: read-out: Fyn-1
T14 construct: Kinases are expressed as either kinase domains or full length constructs; made in house
T14 sequence (P06241 whole entry, species assumed, the tested form may be a part): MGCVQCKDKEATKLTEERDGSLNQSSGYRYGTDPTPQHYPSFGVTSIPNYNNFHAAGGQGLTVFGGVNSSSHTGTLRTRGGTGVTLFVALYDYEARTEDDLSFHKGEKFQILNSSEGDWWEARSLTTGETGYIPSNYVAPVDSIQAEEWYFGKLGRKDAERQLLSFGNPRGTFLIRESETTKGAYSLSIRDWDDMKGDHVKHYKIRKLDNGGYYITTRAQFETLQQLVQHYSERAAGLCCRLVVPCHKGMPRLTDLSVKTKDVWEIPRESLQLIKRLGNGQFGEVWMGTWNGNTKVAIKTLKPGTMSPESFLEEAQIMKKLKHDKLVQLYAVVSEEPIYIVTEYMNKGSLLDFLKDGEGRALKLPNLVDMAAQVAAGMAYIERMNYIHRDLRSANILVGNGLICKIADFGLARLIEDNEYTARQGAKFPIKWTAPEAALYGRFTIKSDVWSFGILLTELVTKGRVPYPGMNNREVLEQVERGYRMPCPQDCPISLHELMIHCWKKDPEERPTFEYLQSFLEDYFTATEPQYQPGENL
Text: as §3, §4, §5

[15] = target: T15, Src (Homo sapiens, UniProt P12931); experiment: Kinase inhibition assay (33P transfer), Src; conditions: Table 6, Src-1 kinase inhibition class
T15 construct: Kinases are expressed as either kinase domains or full length constructs; made in house
T15 sequence (P12931 whole entry, species assumed, the tested form may be a part): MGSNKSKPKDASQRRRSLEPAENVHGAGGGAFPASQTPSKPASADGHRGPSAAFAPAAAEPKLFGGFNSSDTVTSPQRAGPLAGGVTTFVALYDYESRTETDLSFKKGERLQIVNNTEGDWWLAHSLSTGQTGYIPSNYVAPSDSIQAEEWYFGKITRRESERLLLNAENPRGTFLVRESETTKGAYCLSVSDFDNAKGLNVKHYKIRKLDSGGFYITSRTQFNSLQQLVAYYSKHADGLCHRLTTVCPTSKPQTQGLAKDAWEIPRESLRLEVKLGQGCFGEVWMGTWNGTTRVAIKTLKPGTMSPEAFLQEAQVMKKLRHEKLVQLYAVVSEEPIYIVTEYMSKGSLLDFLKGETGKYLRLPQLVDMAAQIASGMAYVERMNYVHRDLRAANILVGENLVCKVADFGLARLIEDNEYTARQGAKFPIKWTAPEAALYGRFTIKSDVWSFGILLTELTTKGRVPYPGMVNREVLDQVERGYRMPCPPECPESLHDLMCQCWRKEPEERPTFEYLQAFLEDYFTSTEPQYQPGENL
Text: as §3, §4, §5

[16] = target: T16, Flt-1 (Homo sapiens, UniProt P17948); experiment: Kinase inhibition assay (33P transfer), Flt-1
T16 construct: Kinases are expressed as either kinase domains or full length constructs; made in house
Text: as §3, §4, §5

SMILES | IC50 [1] [µM] | IC50 [2] [µM] | IC50 [3] [µM] | IC50 [4] [µM] | IC50 [5] [µM] | IC50 [6] [µM] | IC50 [7] [µM] | IC50 [8] [µM] | IC50 [9] [µM] | IC50 [10] [µM] | IC50 [11] [µM] | IC50 [12] [µM] | IC50 [13] [µM] | IC50 [14] [µM] | IC50 [15] [µM] | IC50 [16] [µM]
COc1cc(Nc2ncnc(-n3c(NCc4cccnc4)nc4ccccc43)n2)cc(OC)c1OC [Compound 416] | > 9.29 | < 0.826 | < 0.826 | > 9.29 | 0.826 to 4.95 | > 9.29 | > 9.29 | > 9.29 | 0.826 to 4.95 | < 0.826 | > 9.29 | > 9.29 | > 9.29 | 7.22 to 9.29 | 4.95 to 7.22 | 0.826 to 4.95
CNc1nc2ccccc2n1-c1ncnc(Nc2cc(OC)c(OC)c(OC)c2)n1 [Compound 417] | > 11 | < 0.982 | < 0.982 | > 11 | < 0.982 | > 11 | > 11 | > 11 | 0.982 to 5.89 | < 0.982 | > 11 | > 11 | > 11 | 5.89 to 8.59 | 0.982 to 5.89 | 0.982 to 5.89
COc1cc(Nc2ncnc(N[C@H](CO)c3ccccc3)n2)cc(OC)c1OC [Compound 425] | 1.01 to 6.04 | 1.01 to 6.04 | 6.04 to 8.81 | > 11.3 | > 11.3 | > 11.3 | > 11.3 | > 11.3 | < 1.01 | 8.81 to 11.3 | > 11.3 | > 11.3 | > 11.3 | 8.81 to 11.3 | 1.01 to 6.04 | > 11.3
OCc1cccc(Nc2ncnc(Nc3cc(-c4ccco4)n[nH]3)n2)c1 [Compound 429] | 1.14 to 6.87 | < 1.14 | < 1.14 | > 12.9 | 1.14 to 6.87 | < 1.14 | 1.14 to 6.87 | 10 to 12.9 | < 1.14 | < 1.14 | > 12.9 | 1.14 to 6.87 | 1.14 to 6.87 | 1.14 to 6.87 | < 1.14 | < 1.14
OCc1ccc(Nc2ncnc(Nc3cc(-c4ccco4)n[nH]3)n2)cc1 [Compound 430] | 1.14 to 6.87 | 1.14 to 6.87 | < 1.14 | > 12.9 | 1.14 to 6.87 | 1.14 to 6.87 | 1.14 to 6.87 | 1.14 to 6.87 | 1.14 to 6.87 | < 1.14 | > 12.9 | 1.14 to 6.87 | 1.14 to 6.87 | 1.14 to 6.87 | 1.14 to 6.87 | 1.14 to 6.87
